Reference: patent US11000033B2, “Ketone or oxime compound, and herbicide” (NISSAN CHEMICAL CORPORATION, priority 2014, dated 2021)

Tests used:
Format in all cases: in vivo
[1] = test system: transplanted rice plant; experiment: Test Example 1: effect on crop, application before weed generation in submerged conditions (symbol a); details: application herbicide amount 320 g/ha
Summary of the method: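 Rice at 2.5 leaf stage transplanted into submerged soil (4 cm depth) sown with three weed species; herbicide applied before weed emergence.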

[2] = test system: Leptochloa chinensis; experiment: Test Example 3: herbicidal effect by foliage application, Wagner pot (symbol D); details: application herbicide amount 320 g/ha; for D (Leptochloa chinensis) herbicidal effect grade: Table 24
Summary of the method: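 Seeds sown in alluvial soil kept under 0.1–0.5 cm water, greenhouse 25–30 °C; 14 d growth. Leaves treated by small sprayer with water-diluted emulsion at a predetermined rate. Effect graded by set scale, 3 weeks.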

[3] = test system: Avena fatua; experiment: Test Example 4: herbicidal effect by soil treatment (symbol I); details: for Herbicidal effect grade, I: Avena fatua: application herbicide amount 320 g/ha; for I: Avena fatua, herbicidal effect grade: 320 g/ha
Summary of the method: (§1)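 Seeds were sown in sterilized diluvial soil, covered with about 1.5 cm of soil, and the soil surface was sprayed with a water-diluted emulsion of the compound at a predetermined rate. Plants grew in a greenhouse at 25° C. to 30° C.; effects were scored visually 3 weeks after application.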

[4] = test system: Alopecurus myosuroides; experiment: Test Example 4: herbicidal effect by soil treatment (symbol J); details: for Herbicidal effect grade, J: Alopecurus myosuroides: application herbicide amount 320 g/ha; for J: Alopecurus myosuroides, herbicidal effect grade: 320 g/ha
Summary of the method: as §1

[5] = test system: Veronica persica; experiment: Test Example 4: herbicidal effect by soil treatment (symbol R); details: for Herbicidal effect grade, R: Veronica persica: application herbicide amount 320 g/ha; for R: Veronica persica, herbicidal effect grade: 320 g/ha
Summary of the method: as §1

[6] = test system: wheat; experiment: Test Example 4: effect on crop by soil treatment (symbol e); details: for Effect on crop grade, e: wheat: application herbicide amount 320 g/ha; for e: wheat, effect grade on crop: 320 g/ha
Summary of the method: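 Plants grew in a 25° C. to 30° C. greenhouse after spot-sowing of seeds, including beet, rapeseed, wheat and rice, into sterilized diluvial soil under roughly 1.5 cm of cover soil.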

[7] = test system: Digitaria ciliaris; experiment: Test Example 5: herbicidal effect by foliage application, plastic box (symbol F); details: 320 g/ha, 3 weeks after application
Summary of the method: (§2)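 Herbicide, formulated as an emulsion and diluted in water, is sprayed onto the aerial parts of 14-day seedlings. These were grown at 25° C. to 30° C. in sterilized diluvial soil; effects are graded after 3 weeks.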

[8] = test system: Alopecurus myosuroides; experiment: Test Example 5: herbicidal effect by foliage application, plastic box (symbol J); details: 320 g/ha, 3 weeks after application
Summary of the method: as §2

[9] = test system: Lolium multiflorum Lam.; experiment: Test Example 5: herbicidal effect by foliage application, plastic box (symbol K); details: 320 g/ha, 3 weeks after application
Summary of the method: as §2

[10] = test system: Galium spurium; experiment: Test Example 5: herbicidal effect by foliage application, plastic box (symbol Q); details: 320 g/ha, 3 weeks after application
Summary of the method: as §2

[11] = test system: corn; experiment: Test Example 5: effect on crop by foliage application, plastic box (symbol c); details: 320 g/ha, 3 weeks after application
Summary of the method: (§3)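 A greenhouse held between 25° C. and 30° C. was used to grow plants sown spot-wise, beneath ~1.5 cm of soil, in boxes of sterilized diluvial soil.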

[12] = test system: soybean; experiment: Test Example 5: effect on crop by foliage application, plastic box (symbol d); details: 320 g/ha, 3 weeks after application
Summary of the method: as §3

[13] = test system: wheat; experiment: Test Example 5: effect on crop by foliage application, plastic box (symbol e); details: 320 g/ha, 3 weeks after application
Summary of the method: as §3

[14] = test system: Scirpus juncoides; experiment: Test Example 2: herbicidal activity, application during weed generation in submerged conditions (symbol B); details: Table 23; application herbicide amount 320 g/ha; grade 0-5 by criteria of Test Example 1
Summary of the method: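 Each pot contained alluvial soil under 4 cm of water with seeds of all three weeds sown together. Following growth at 25° C. to 30° C. to the one- to two-leaf stage, the floodwater received diluted emulsion at a predetermined amount; visual assessment followed at 3 weeks.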

CC(CC1CC(OC(=O)N2CCOCC2)=C(c2c(C)cc(-c3ccc(Cl)cc3)cc2C)C1=O)=NOCC(F)(F)F (mixture of isomers) [9-025]
a (transplanted rice plant) effect on crop grade [1]: 0 (Herbicidal ratio of 5% or lower (almost no effect))
D (Leptochloa chinensis) herbicidal effect grade [2]: 5 (Herbicidal ratio of 90% or more (almost completely withered))
Herbicidal effect grade, I: Avena fatua [3]: 0 (Herbicidal ratio of 5% or lower (almost no effect))
Herbicidal effect grade, J: Alopecurus myosuroides [4]: 0 (Herbicidal ratio of 5% or lower (almost no effect))
Herbicidal effect grade, R: Veronica persica [5]: 0 (Herbicidal ratio of 5% or lower (almost no effect))
Effect on crop grade, e: wheat [6]: 0 (Herbicidal ratio of 5% or lower (almost no effect))
F: Digitaria ciliaris, herbicidal effect grade [7]: 5 (Herbicidal ratio of 90% or more (almost completely withered))
J: Alopecurus myosuroides, herbicidal effect grade [8]: 0 (Herbicidal ratio of 5% or lower (almost no effect))
K: Lolium multiflorum Lam., herbicidal effect grade [9]: 0 (Herbicidal ratio of 5% or lower (almost no effect))
Q: Galium spurium, herbicidal effect grade [10]: 0 (Herbicidal ratio of 5% or lower (almost no effect))
c: corn, effect on crop grade [11]: 5 (Herbicidal ratio of 90% or more (almost completely withered))
d: soybean, effect on crop grade [12]: 0 (Herbicidal ratio of 5% or lower (almost no effect))
e: wheat, effect on crop grade [13]: 0 (Herbicidal ratio of 5% or lower (almost no effect))

CC(CC1CC(OC(=O)COc2ccccc2)=C(c2c(C)cc(-c3ccc(Cl)cc3)cc2C)C1=O)=NOCC(F)(F)F (mixture of isomers) [9-027]
a (transplanted rice plant) effect on crop grade [1]: 5 (Herbicidal ratio of 90% or more (almost completely withered))
Herbicidal effect grade, B: Scirpus juncoides [14]: 0 (Herbicidal ratio of 5% or lower (almost no effect))
D (Leptochloa chinensis) herbicidal effect grade [2]: 5 (Herbicidal ratio of 90% or more (almost completely withered))
Herbicidal effect grade, I: Avena fatua [3]: 4 (Herbicidal ratio of 70% or higher and lower than 90%)
Herbicidal effect grade, J: Alopecurus myosuroides [4]: 5 (Herbicidal ratio of 90% or more (almost completely withered))
Herbicidal effect grade, R: Veronica persica [5]: 3 (Herbicidal ratio of 40% or higher and lower than 70%)
Effect on crop grade, e: wheat [6]: 2 (Herbicidal ratio of 20% or higher and lower than 40%)
F: Digitaria ciliaris, herbicidal effect grade [7]: 5 (Herbicidal ratio of 90% or more (almost completely withered))
J: Alopecurus myosuroides, herbicidal effect grade [8]: 5 (Herbicidal ratio of 90% or more (almost completely withered))
K: Lolium multiflorum Lam., herbicidal effect grade [9]: 5 (Herbicidal ratio of 90% or more (almost completely withered))
Q: Galium spurium, herbicidal effect grade [10]: 3 (Herbicidal ratio of 40% or higher and lower than 70%)
c: corn, effect on crop grade [11]: 5 (Herbicidal ratio of 90% or more (almost completely withered))
d: soybean, effect on crop grade [12]: 0 (Herbicidal ratio of 5% or lower (almost no effect))
e: wheat, effect on crop grade [13]: 4 (Herbicidal ratio of 70% or higher and lower than 90%)

CC(CC1CC(O)=C(c2c(C)cc(C)cc2C)C1=O)=NOCc1ccccc1Cl (stereo not shown) [1-113]
Effect grade on crop, a: transplanted rice plant [1]: 3 (Herbicidal ratio of 40% or higher and lower than 70%)
Herbicidal effect grade, B: Scirpus juncoides [14]: 3 (Herbicidal ratio of 40% or higher and lower than 70%)
I: Avena fatua, herbicidal effect grade [3]: 3 (Herbicidal ratio of 40% or higher and lower than 70%)
J: Alopecurus myosuroides, herbicidal effect grade [4]: 3 (Herbicidal ratio of 40% or higher and lower than 70%)
R: Veronica persica, herbicidal effect grade [5]: 0 (Herbicidal ratio of 5% or lower (almost no effect))
e: wheat, effect grade on crop [6]: 0 (Herbicidal ratio of 5% or lower (almost no effect))
F: Digitaria ciliaris, herbicidal effect (criteria 0-5) [7]: 5 (Herbicidal ratio of 90% or more (almost completely withered))
J: Alopecurus myosuroides, herbicidal effect (criteria 0-5) [8]: 4 (Herbicidal ratio of 70% or higher and lower than 90%)
K: Lolium multiflorum Lam., herbicidal effect (criteria 0-5) [9]: 5 (Herbicidal ratio of 90% or more (almost completely withered))
Q: Galium spurium, herbicidal effect (criteria 0-5) [10]: 0 (Herbicidal ratio of 5% or lower (almost no effect))
c: corn, effect on crop (criteria 0-5) [11]: 0 (Herbicidal ratio of 5% or lower (almost no effect))
d: soybean, effect on crop (criteria 0-5) [12]: 0 (Herbicidal ratio of 5% or lower (almost no effect))
e: wheat, effect on crop (criteria 0-5) [13]: 3 (Herbicidal ratio of 40% or higher and lower than 70%)

CC(CC1CC(O)=C(c2c(C)cc(C)cc2C)C1=O)=NOCc1ccccc1[N+](=O)[O-] (stereo not shown) [1-119]
Effect grade on crop, a: transplanted rice plant [1]: 3 (Herbicidal ratio of 40% or higher and lower than 70%)
herbicidal effect on D (Leptochloa chinensis), grade 0-5 [2]: 4 (Herbicidal ratio of 70% or higher and lower than 90%)
I: Avena fatua, herbicidal effect grade [3]: 1 (Herbicidal ratio of 5% or higher and lower than 20%)
J: Alopecurus myosuroides, herbicidal effect grade [4]: 4 (Herbicidal ratio of 70% or higher and lower than 90%)
R: Veronica persica, herbicidal effect grade [5]: 0 (Herbicidal ratio of 5% or lower (almost no effect))
e: wheat, effect grade on crop [6]: 0 (Herbicidal ratio of 5% or lower (almost no effect))
F: Digitaria ciliaris, herbicidal effect (criteria 0-5) [7]: 5 (Herbicidal ratio of 90% or more (almost completely withered))
J: Alopecurus myosuroides, herbicidal effect (criteria 0-5) [8]: 5 (Herbicidal ratio of 90% or more (almost completely withered))
K: Lolium multiflorum Lam., herbicidal effect (criteria 0-5) [9]: 5 (Herbicidal ratio of 90% or more (almost completely withered))
Q: Galium spurium, herbicidal effect (criteria 0-5) [10]: 0 (Herbicidal ratio of 5% or lower (almost no effect))
c: corn, effect on crop (criteria 0-5) [11]: 2 (Herbicidal ratio of 20% or higher and lower than 40%)
d: soybean, effect on crop (criteria 0-5) [12]: 0 (Herbicidal ratio of 5% or lower (almost no effect))
e: wheat, effect on crop (criteria 0-5) [13]: 4 (Herbicidal ratio of 70% or higher and lower than 90%)

CON=C(C)CC1CC(OC(=O)N(C)CCCCCl)=C(c2c(C)cc(C)cc2C)C1=O (stereo not shown) [1-126]
Effect grade on crop, a: transplanted rice plant [1]: 3 (Herbicidal ratio of 40% or higher and lower than 70%)
herbicidal effect on D (Leptochloa chinensis), grade 0-5 [2]: 5 (Herbicidal ratio of 90% or more (almost completely withered))
I: Avena fatua, herbicidal effect grade [3]: 0 (Herbicidal ratio of 5% or lower (almost no effect))
J: Alopecurus myosuroides, herbicidal effect grade [4]: 3 (Herbicidal ratio of 40% or higher and lower than 70%)
R: Veronica persica, herbicidal effect grade [5]: 0 (Herbicidal ratio of 5% or lower (almost no effect))
e: wheat, effect grade on crop [6]: 0 (Herbicidal ratio of 5% or lower (almost no effect))
F: Digitaria ciliaris, herbicidal effect (criteria 0-5) [7]: 3 (Herbicidal ratio of 40% or higher and lower than 70%)
J: Alopecurus myosuroides, herbicidal effect (criteria 0-5) [8]: 5 (Herbicidal ratio of 90% or more (almost completely withered))
K: Lolium multiflorum Lam., herbicidal effect (criteria 0-5) [9]: 5 (Herbicidal ratio of 90% or more (almost completely withered))
Q: Galium spurium, herbicidal effect (criteria 0-5) [10]: 0 (Herbicidal ratio of 5% or lower (almost no effect))
c: corn, effect on crop (criteria 0-5) [11]: 0 (Herbicidal ratio of 5% or lower (almost no effect))
d: soybean, effect on crop (criteria 0-5) [12]: 0 (Herbicidal ratio of 5% or lower (almost no effect))
e: wheat, effect on crop (criteria 0-5) [13]: 0 (Herbicidal ratio of 5% or lower (almost no effect))

CC#Cc1cc(C)c(C2=C(O)CC(CC(=NOCCOC)C3CC3)C2=O)c(C)c1 (stereo not shown) [9-021]
a (transplanted rice plant) effect on crop grade [1]: 5 (Herbicidal ratio of 90% or more (almost completely withered))
Herbicidal effect grade, B: Scirpus juncoides [14]: 5 (Herbicidal ratio of 90% or more (almost completely withered))
D (Leptochloa chinensis) herbicidal effect grade [2]: 5 (Herbicidal ratio of 90% or more (almost completely withered))
Herbicidal effect grade, I: Avena fatua [3]: 1 (Herbicidal ratio of 5% or higher and lower than 20%)
Herbicidal effect grade, J: Alopecurus myosuroides [4]: 5 (Herbicidal ratio of 90% or more (almost completely withered))
Herbicidal effect grade, R: Veronica persica [5]: 3 (Herbicidal ratio of 40% or higher and lower than 70%)
Effect on crop grade, e: wheat [6]: 3 (Herbicidal ratio of 40% or higher and lower than 70%)
F: Digitaria ciliaris, herbicidal effect grade [7]: 5 (Herbicidal ratio of 90% or more (almost completely withered))
J: Alopecurus myosuroides, herbicidal effect grade [8]: 5 (Herbicidal ratio of 90% or more (almost completely withered))
K: Lolium multiflorum Lam., herbicidal effect grade [9]: 5 (Herbicidal ratio of 90% or more (almost completely withered))
c: corn, effect on crop grade [11]: 5 (Herbicidal ratio of 90% or more (almost completely withered))
d: soybean, effect on crop grade [12]: 1 (Herbicidal ratio of 5% or higher and lower than 20%)
e: wheat, effect on crop grade [13]: 4 (Herbicidal ratio of 70% or higher and lower than 90%)
